Measured values: US20220281848A1, “PYRAZOLE-SUBSTITUTED PYRROLIDINONES AS HERBICIDES” (FMC Corporation, priority 2019, published 2022)

Experiments:
Assay type in all cases: in vivo
Conditions in all cases: after 13 d
[1] = system: corn (Zea mays, ZEAMX); test: Test A pre-emergence, corn
Protocol: (§1) Seeds of corn (Zea mays, ZEAMX), giant foxtail (Setaria faberi, SETFA), barnyardgrass (Echinochloa crus-galli, ECHCG), ivy-leaved morning glory (Ipomoea hederacea, IPOHE), redroot pigweed (Amaranthus retroflexus, AMARE) and velvetleaf (Abutilon theophrasti, ABUTH) were sown in standard soil in pots. After cultivation for one day under controlled conditions in a glasshouse (at 24/16° C., day/night; 14 h light; 65% humidity), the plants were sprayed with an aqueous spray solution derived from the formulation of the technical active ingredient in acetone/water (50:50) solution containing 0.5% Tween 20 (polyoxyethylene sorbitan monolaurate, CAS RN 9005-64-5) to give a final dose of 15.625, 62.5 or 250 g/ha of test compound.
(§2) The test plants were then grown under controlled conditions in a glasshouse (at 24/16° C., day/night; 14 h light; 65% humidity) and watered twice daily. After 13 d the test was evaluated (100=total damage to plant; 0=no damage to plant).

[2] = system: giant foxtail (Setaria faberi, SETFA); test: Test A pre-emergence, giant foxtail
Protocol: as §1, §2

[3] = system: barnyardgrass (Echinochloa crus-galli, ECHCG); test: Test A pre-emergence, barnyardgrass
Protocol: as §1, §2

[4] = system: ivy-leaved morning glory (Ipomoea hederacea, IPOHE); test: Test A pre-emergence, ivy-leaved morning glory
Protocol: as §1, §2

[5] = system: redroot pigweed (Amaranthus retroflexus, AMARE); test: Test A pre-emergence, redroot pigweed
Protocol: as §1, §2

[6] = system: velvetleaf (Abutilon theophrasti, ABUTH); test: Test A pre-emergence, velvetleaf
Protocol: as §1, §2

[7] = system: corn (Zea mays, ZEAMX); test: Test A post-emergence, corn
Protocol: as §1, with “IPOHE)),” for “IPOHE),”, “8 d” for “one day”
(§3) The test plants were then grown on under controlled conditions in a glasshouse (at 24/16° C., day/night; 14 h light; 65% humidity) and watered twice daily. After 13 d the test was evaluated (100=total damage to plant; 0=no damage to plant).

[8] = system: giant foxtail (Setaria faberi, SETFA); test: Test A post-emergence, giant foxtail
Protocol: as §1, with “IPOHE)),” for “IPOHE),”, “8 d” for “one day”
as §3

[9] = system: barnyardgrass (Echinochloa crus-galli, ECHCG); test: Test A post-emergence, barnyardgrass
Protocol: as §1, with “IPOHE)),” for “IPOHE),”, “8 d” for “one day”
as §3

[10] = system: ivy-leaved morning glory (Ipomoea hederacea, IPOHE); test: Test A post-emergence, ivy-leaved morning glory
Protocol: as §1, with “IPOHE)),” for “IPOHE),”, “8 d” for “one day”
as §3

[11] = system: redroot pigweed (Amaranthus retroflexus, AMARE); test: Test A post-emergence, redroot pigweed
Protocol: as §1, with “IPOHE)),” for “IPOHE),”, “8 d” for “one day”
as §3

[12] = system: velvetleaf (Abutilon theophrasti, ABUTH); test: Test A post-emergence, velvetleaf
Protocol: as §1, with “IPOHE)),” for “IPOHE),”, “8 d” for “one day”
as §3

Structure (SMILES)	damage to plant (100=total damage; 0=no damage) ZEAMX ([1]; Pre-Emergence at 15.625 g/ha)	damage to plant (100=total damage; 0=no damage) ZEAMX ([1]; Pre-Emergence at 62.5 g/ha)	damage to plant (100=total damage; 0=no damage) ZEAMX ([1]; Pre-Emergence at 250 g/ha)	damage to plant (100=total damage; 0=no damage) SETFA ([2]; Pre-Emergence at 15.625 g/ha)	damage to plant (100=total damage; 0=no damage) SETFA ([2]; Pre-Emergence at 62.5 g/ha)	damage to plant (100=total damage; 0=no damage) SETFA ([2]; Pre-Emergence at 250 g/ha)	damage to plant (100=total damage; 0=no damage) ECHCG ([3]; Pre-Emergence at 15.625 g/ha)	damage to plant (100=total damage; 0=no damage) ECHCG ([3]; Pre-Emergence at 62.5 g/ha)	damage to plant (100=total damage; 0=no damage) ECHCG ([3]; Pre-Emergence at 250 g/ha)	damage to plant (100=total damage; 0=no damage) IPOHE ([4]; Pre-Emergence at 15.625 g/ha)	damage to plant (100=total damage; 0=no damage) IPOHE ([4]; Pre-Emergence at 62.5 g/ha)	damage to plant (100=total damage; 0=no damage) IPOHE ([4]; Pre-Emergence at 250 g/ha)	damage to plant (100=total damage; 0=no damage) AMARE ([5]; Pre-Emergence at 15.625 g/ha)	damage to plant (100=total damage; 0=no damage) AMARE ([5]; Pre-Emergence at 62.5 g/ha)	damage to plant (100=total damage; 0=no damage) AMARE ([5]; Pre-Emergence at 250 g/ha)	damage to plant (100=total damage; 0=no damage) ABUTH ([6]; Pre-Emergence at 15.625 g/ha)	damage to plant (100=total damage; 0=no damage) ABUTH ([6]; Pre-Emergence at 62.5 g/ha)	damage to plant (100=total damage; 0=no damage) ABUTH ([6]; Pre-Emergence at 250 g/ha)	damage to plant (100=total damage; 0=no damage) ZEAMX ([7]; Post-Emergence at 15.625 g/ha)	damage to plant (100=total damage; 0=no damage) ZEAMX ([7]; Post-Emergence at 62.5 g/ha)	also measured
CN1CC(c2cc(Cl)n(C)n2)C(C(=O)Nc2ccc(F)cc2F)C1=O (racemic) [Compound 29]	0	10	10	20	30	80	30	70	80	0	0	0	0	0	0	0	0	0	0	0	damage to plant (100=total damage; 0=no damage) ZEAMX ([7]; Post-Emergence at 250 g/ha): 0; damage to plant (100=total damage; 0=no damage) SETFA ([8]; Post-Emergence at 15.625 g/ha): 10; damage to plant (100=total damage; 0=no damage) SETFA ([8]; Post-Emergence at 62.5 g/ha): 20; damage to plant (100=total damage; 0=no damage) SETFA ([8]; Post-Emergence at 250 g/ha): 60; damage to plant (100=total damage; 0=no damage) ECHCG ([9]; Post-Emergence at 15.625 g/ha): 20; damage to plant (100=total damage; 0=no damage) ECHCG ([9]; Post-Emergence at 62.5 g/ha): 50; damage to plant (100=total damage; 0=no damage) ECHCG ([9]; Post-Emergence at 250 g/ha): 60; damage to plant (100=total damage; 0=no damage) IPOHE ([10]; Post-Emergence at 15.625 g/ha): 0; damage to plant (100=total damage; 0=no damage) IPOHE ([10]; Post-Emergence at 62.5 g/ha): 0; damage to plant (100=total damage; 0=no damage) IPOHE ([10]; Post-Emergence at 250 g/ha): 10; damage to plant (100=total damage; 0=no damage) AMARE ([11]; Post-Emergence at 15.625 g/ha): 10; damage to plant (100=total damage; 0=no damage) AMARE ([11]; Post-Emergence at 62.5 g/ha): 30; damage to plant (100=total damage; 0=no damage) AMARE ([11]; Post-Emergence at 250 g/ha): 40; damage to plant (100=total damage; 0=no damage) ABUTH ([12]; Post-Emergence at 15.625 g/ha): 0; damage to plant (100=total damage; 0=no damage) ABUTH ([12]; Post-Emergence at 62.5 g/ha): 0; damage to plant (100=total damage; 0=no damage) ABUTH ([12]; Post-Emergence at 250 g/ha): 0
CN1CC(c2nn(C)c(Cl)c2Br)C(C(=O)Nc2ccc(F)cc2F)C1=O (racemic) [Compound 30]	0	0	0	0	0	10	0	10	20	0	0	10	0	0	10	0	0	0	0	0	damage to plant (100=total damage; 0=no damage) ZEAMX ([7]; Post-Emergence at 250 g/ha): 0; damage to plant (100=total damage; 0=no damage) SETFA ([8]; Post-Emergence at 15.625 g/ha): 10; damage to plant (100=total damage; 0=no damage) SETFA ([8]; Post-Emergence at 62.5 g/ha): 20; damage to plant (100=total damage; 0=no damage) SETFA ([8]; Post-Emergence at 250 g/ha): 50; damage to plant (100=total damage; 0=no damage) ECHCG ([9]; Post-Emergence at 15.625 g/ha): 0; damage to plant (100=total damage; 0=no damage) ECHCG ([9]; Post-Emergence at 62.5 g/ha): 20; damage to plant (100=total damage; 0=no damage) ECHCG ([9]; Post-Emergence at 250 g/ha): 50; damage to plant (100=total damage; 0=no damage) IPOHE ([10]; Post-Emergence at 15.625 g/ha): 0; damage to plant (100=total damage; 0=no damage) IPOHE ([10]; Post-Emergence at 62.5 g/ha): 0; damage to plant (100=total damage; 0=no damage) IPOHE ([10]; Post-Emergence at 250 g/ha): 0; damage to plant (100=total damage; 0=no damage) AMARE ([11]; Post-Emergence at 15.625 g/ha): 0; damage to plant (100=total damage; 0=no damage) AMARE ([11]; Post-Emergence at 62.5 g/ha): 0; damage to plant (100=total damage; 0=no damage) AMARE ([11]; Post-Emergence at 250 g/ha): 10; damage to plant (100=total damage; 0=no damage) ABUTH ([12]; Post-Emergence at 15.625 g/ha): 0; damage to plant (100=total damage; 0=no damage) ABUTH ([12]; Post-Emergence at 62.5 g/ha): 0; damage to plant (100=total damage; 0=no damage) ABUTH ([12]; Post-Emergence at 250 g/ha): 0
CN1CC(c2nn(C)c(Cl)c2Br)C(C(=O)Nc2ccc(F)c(F)c2F)C1=O (racemic) [Compound 32]	0	10	10	20	60	90	30	50	70	0	0	10	0	0	0	0	0	0	0	0	damage to plant (100=total damage; 0=no damage) ZEAMX ([7]; Post-Emergence at 250 g/ha): 10; damage to plant (100=total damage; 0=no damage) SETFA ([8]; Post-Emergence at 15.625 g/ha): 20; damage to plant (100=total damage; 0=no damage) SETFA ([8]; Post-Emergence at 62.5 g/ha): 60; damage to plant (100=total damage; 0=no damage) SETFA ([8]; Post-Emergence at 250 g/ha): 80; damage to plant (100=total damage; 0=no damage) ECHCG ([9]; Post-Emergence at 15.625 g/ha): 10; damage to plant (100=total damage; 0=no damage) ECHCG ([9]; Post-Emergence at 62.5 g/ha): 40; damage to plant (100=total damage; 0=no damage) ECHCG ([9]; Post-Emergence at 250 g/ha): 80; damage to plant (100=total damage; 0=no damage) IPOHE ([10]; Post-Emergence at 15.625 g/ha): 0; damage to plant (100=total damage; 0=no damage) IPOHE ([10]; Post-Emergence at 62.5 g/ha): 0; damage to plant (100=total damage; 0=no damage) IPOHE ([10]; Post-Emergence at 250 g/ha): 10; damage to plant (100=total damage; 0=no damage) AMARE ([11]; Post-Emergence at 15.625 g/ha): 0; damage to plant (100=total damage; 0=no damage) AMARE ([11]; Post-Emergence at 62.5 g/ha): 0; damage to plant (100=total damage; 0=no damage) AMARE ([11]; Post-Emergence at 250 g/ha): 0; damage to plant (100=total damage; 0=no damage) ABUTH ([12]; Post-Emergence at 15.625 g/ha): 0; damage to plant (100=total damage; 0=no damage) ABUTH ([12]; Post-Emergence at 62.5 g/ha): 0; damage to plant (100=total damage; 0=no damage) ABUTH ([12]; Post-Emergence at 250 g/ha): 0
